{"source": "patent US20260297042A1", "about": "“BIARYLAMIDE DERIVATIVES AND THEIR USE AS PKMYT1 INHIBITORS” (CANCER RESEARCH TECHNOLOGY LIMITED, priority 2023, published 2026)", "key": {"OVCAR3 cells": {"tested_on": "OVCAR3 cells", "assay": "Cancer cell line proliferation assay, nuclear count, OVCAR3 (CCNE1-amplified)", "format": "cell-based", "settings": "banded", "procedure": "h-TERT-RPE1 TP53−/− and CCNE1 high expressing clones (clone cell lines 7 and 15) were treated with test compounds dissolved in DMSO at serially diluted concentrations alongside a DMSO only control for around 6 population doublings time. Cells were then fixed with 4% Paraformaldehyde and the cell nuclei were stained with DAPI (Sigma D9542). Images covering each well were acquired by an Opera Phenix® High-Content Screening System (PerkinElmer). Image analysis was performed using Harmony® high-content analysis software (PerkinElmer). Data analysis was performed using Microsoft Excel® and GI50 estimates generated with GraphPad Prism v9. Percent nuclear count was compared to vehicle control wells and used to measure inhibition of proliferation.\nCancer cell lines with either normal (KYSE-30) or amplified CCNE1 expression (OVCAR3-ovarian cancer) were evaluated for their sensitivity to PKMYT1 inhibitors in a nuclear count assay as described above for h-TERT-RPE1 TP53−/− and a CCNE1 high expressing clones, taking into account the slower cell cycle division times of these lines."}, "Human PKMYT1": {"biological_target": "T1, Human PKMYT1 (Homo sapiens, UniProt Q99640)", "T1 construct": "Human PKMYT1 75-362 was cloned as a TEV cleavable 6xHis fusion; 6xHis (TEV cleavable) (cleaved yes); made in house; host or cells: bacterial cells", "T1 sequence (Q99640 75-362)": "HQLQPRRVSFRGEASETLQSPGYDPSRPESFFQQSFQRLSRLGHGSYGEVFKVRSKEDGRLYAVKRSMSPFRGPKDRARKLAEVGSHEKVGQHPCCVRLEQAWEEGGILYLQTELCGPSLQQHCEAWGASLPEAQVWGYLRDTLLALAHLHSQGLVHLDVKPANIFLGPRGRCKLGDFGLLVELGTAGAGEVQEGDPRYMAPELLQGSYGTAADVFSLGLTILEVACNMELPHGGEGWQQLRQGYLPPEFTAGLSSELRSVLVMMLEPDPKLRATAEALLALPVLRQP", "assay": "PKMYT1 biochemical ADP-Glo enzymatic assay", "settings": "ADP-Glo; 15 nM PKMYT1 kinase domain, 500 µM ATP, 60 minutes at 26° C.; banded", "how_it_was_run": "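IC50 derived from luminescence (ADP-Glo Max) after PKMYT1 kinase domain, 15 nM, turned over 500 µM ATP for 60 min at 26 °C. Buffer contained 10 mM MgCl2, 1 mM EGTA and 0.01% Brij-35 at pH 7.5.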"}, "KYSE-30 cells": {"tested_on": "KYSE-30 cells", "assay": "Cancer cell line proliferation assay, ATP-based cell viability (Cell Titre Glow), KYSE-30 (normal CCNE1)", "settings": "Homo sapiens, KYSE-30 cells (normal CCNE1), concentration that achieves 50% cell growth proliferation inhibition, read-out: KYSE30 Gl50", "how_it_was_run": "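GI50 reflects half-maximal growth inhibition by PKMYT1 inhibitors, derived by curve fitting of CellTiter-Glo luminescence signals.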"}}, "data": [{"smiles": "CCN(CC)C(=O)Cn1cc(C)c(Nc2ncc(C(=O)Nc3c(C)ccc(O)c3C)s2)n1", "note": "[BAA-207, 2-[[1-[2-(diethylamino)-2-oxo-ethyl]-4-methyl-pyrazol-3-yl]amino]-N-(3-hydroxy-2,6-dimethyl-phenyl)thiazole-5-carboxamide]", "values": [{"measurement": "Selectivity ratio KYSE30 GI50 vs. OVCAR3 GI50", "setting": "OVCAR3 cells; GI50 ratio KYSE30 vs. OVCAR3, >N = at least in this band", "value": "Z (>30 fold)"}, {"measurement": "GI50", "setting": "OVCAR3 cells; Homo sapiens, OVCAR-3, CCNE1-amplified ovarian cancer, nuclear count", "value": "< 500", "unit": "nM"}, {"measurement": "IC50", "setting": "Human PKMYT1", "value": "< 50", "unit": "nM"}, {"measurement": "GI50", "setting": "KYSE-30 cells", "value": "> 5000", "unit": "nM"}]}]}
